According to patent US7829568B2, “Substituted 5,6,7,8-tetrahydroimidazo[1,2-a]pyridin-2-ylamine compounds and their use for producing drugs” (Gruenenthal GmbH, priority 2005, dated 2010):

The molecules below were run on batrachotoxin (BTX) binding site of the sodium channel (assay: Affinity to the batrachotoxin (BTX) binding site of the sodium channel). Conditions: [3H]-batrachotoxinin A20 α-benzoate 10 nM; synaptosomes from rat cerebral cortex; test concentration not given.
Design: species or system rat

In order of falling “BTX inhibition (rat) (% inhibition)” value:
1. CCCCN(C(=O)c1cccc(Cl)c1)c1nc2n(c1C(=O)NC1CCN(Cc3cc(OC)c(OC)cc3Br)C1)CCCC2 (stereo not drawn) [Example 172, 2-[butyl-(3-chloro-benzoyl)-amino]-5,6,7,8-tetrahydro-imidazo[1,2-a]pyridine-3-carboxylic acid [1-(2-bromo-4,5-dimethoxy-benzyl)-pyrrolidin-3-yl]-amide]  96%
2. CCCCN(C(=O)c1cccc(Cl)c1)c1nc2n(c1C(=O)N1CCN(CCCc3ccccc3)CC1)CCCC2 [Example 26, N-butyl-3-chloro-N-{3-[4-(3-phenyl-propyl)-piperazine-1-carbonyl]-5,6,7,8-tetrahydro-imidazo[1,2-a]pyridin-2-yl}-benzamide]  93%
3. CCCCN(C(=O)c1cccc(Cl)c1)c1nc2n(c1C(=O)N(C)C1CCN(Cc3c(Cl)cccc3Cl)C1)CCCC2 (stereo not drawn) [Example 87, 2-[butyl-(3-chloro-benzoyl)-amino]-5,6,7,8-tetrahydro-imidazo[1,2-a]pyridine-3-carboxylic acid [1-(2,6-dichloro-benzyl)-pyrrolidin-3-yl]-methyl-amide]  93%
4. CN(C(=O)Cc1ccccc1)c1nc2n(c1C(=O)N(C)C1CCN(Cc3ccc(-c4ccccc4)cc3)C1)CCCC2 (stereo not drawn) [Example 168, 2-(methyl-phenylacetyl-amino)-5,6,7,8-tetrahydro-imidazo[1,2-a]pyridine-3-carboxylic acid (1-biphenyl-4-ylmethyl-pyrrolidin-3-yl)-methyl-amide]  92%
5. COc1cc(Br)c(CN2CCC(NC(=O)c3c(N(C)C(=O)c4cccc(Cl)c4)nc4n3CCCC4)C2)cc1OC (stereo not drawn) [Example 84, 2-[(3-chloro-benzoyl)-methyl-amino]-5,6,7,8-tetrahydro-imidazo[1,2-a]pyridin-3-carboxylic acid [1-(2-bromo-4,5-dimethoxy-benzyl)-pyrrolidin-3-yl]-amide]  87%
6. COc1cc(OC)c(CN2CCN(C(=O)c3c(N(C)C(=O)c4cccc(Cl)c4)nc4n3CCCC4)CC2)c(OC)c1 [Example 146, 3-chloro-N-methyl-N-{3-[4-(2,4,6-trimethoxy-benzyl)-piperazine-1-carbonyl]-5,6,7,8-tetrahydro-imidazo[1,2-a]pyridin-2-yl}-benzamide]  70%
7. CCCCN(C(=O)c1cccc(Cl)c1)c1nc2n(c1C(=O)NC(C)CCc1ccccc1)CCCC2 (stereo not drawn) [Example 145, 2-[butyl-(3-chloro-benzoyl)-amino]-5,6,7,8-tetrahydro-imidazo[1,2-a]pyridine-3-carboxylic acid (1-methyl-3-phenyl-propyl)-amide]  67%
8. CCOc1ccc(Br)cc1CN1CCN(C(=O)c2c(N(C)C(=O)Cc3ccccc3)nc3n2CCCC3)CC1 [Example 130, N-{3-[4-(5-bromo-2-ethoxy-benzyl)-piperazine-1-carbonyl]-5,6,7,8-tetrahydro-imidazo[1,2-a]pyridin-2-yl}-N-methyl-2-phenyl-acetamide]  67%
9. CCCCN(C(=O)c1cccc(Cl)c1)c1nc2n(c1C(=O)N1CCC(O)(c3cccc(C(F)(F)F)c3)CC1)CCCC2 [Example 175, N-butyl-3-chloro-N-{3-[4-hydroxy-4-(3-trifluoromethyl-phenyl)-piperidine-1-carbonyl]-5,6,7,8-tetrahydro-imidazo[1,2-a]pyridin-2-yl}-benzamide]  65%
10. CCCCN(C(=O)c1ccc(F)c(F)c1)c1nc2n(c1C(=O)N1CCN(C(c3ccccc3)c3ccccc3)CC1)CCCC2 [Example 56, N-[3-(4-benzhydryl-piperazine-1-carbonyl)-5,6,7,8-tetrahydro-imidazo[1,2-a]pyridin-2-yl]-N-butyl-3,4-difluoro-benzamide]  65%
11. CCCCN(C(=O)c1cccc(Cl)c1)c1nc2n(c1C(=O)NCCc1cc(OC)ccc1OC)CCCC2 [Example 2, 2-[butyl-(3-chloro-benzoyl)-amino]-5,6,7,8-tetrahydro-imidazo[1,2-a]pyridine-3-carboxylic acid [2-(2,5-dimethoxy-phenyl)-ethyl]-amide]  59%
12. CN(C(=O)c1cccc(Cl)c1)c1nc2n(c1C(=O)NC1CCCCC1OCc1ccccc1)CCCC2 (stereo not drawn) [Example 67, 2-[(3-chloro-benzoyl)-methyl-amino]-5,6,7,8-tetrahydro-imidazo[1,2-a]pyridine-3-carboxylic acid (2-benzyloxy-cyclohexyl)-amide]  51%
13. CCCCN(C(=O)c1ccc(F)c(F)c1)c1nc2n(c1C(=O)NC1CCCCC1OCc1ccccc1)CCCC2 (stereo not drawn) [Example 161, 2-[butyl-(3,4-difluoro-benzoyl)-amino]-5,6,7,8-tetrahydro-imidazo[1,2-a]pyridine-3-carboxylic acid (2-benzyloxy-cyclohexyl)-amide]  49%
14. CCCCN(C(=O)c1cccc(Cl)c1)c1nc2n(c1C(=O)NC1CCCCC1OCc1ccccc1)CCCC2 (stereo not drawn) [Example 124, 2-[butyl-(3-chloro-benzoyl)-amino]-5,6,7,8-tetrahydro-imidazo[1,2-a]pyridine-3-carboxylic acid (2-benzyloxy-cyclohexyl)-amide]  48%
15. CCCCN(C(=O)c1cccc(Cl)c1)c1nc2n(c1C(=O)N[C@H](C(=O)OCc1ccccc1)C(C)C)CCCC2 [Example 91]  48%
16. CCCCN(C(=O)c1cccc(Cl)c1)c1nc2n(c1C(=O)NCCc1c[nH]c3c(C)cccc13)CCCC2 [Example 69, 2-[butyl-(3-chloro-benzoyl)-amino]-5,6,7,8-tetrahydro-imidazo[1,2-a]pyridine-3-carboxylic acid [2-(7-methyl-1H-indol-3-yl)-ethyl]-amide]  48%
17. CN(C(=O)c1cccc2ccccc12)c1nc2n(c1C(=O)N1CCN(CCc3ccccc3)CC1)CCCC2 [Example 174, naphthalene-1-carboxylic acid methyl-[3-(4-phenethyl-piperazine-1-carbonyl)-5,6,7,8-tetrahydro-imidazo[1,2-a]pyridin-2-yl]-amide]  47%
18. CCCCN(C(=O)c1cccc(Cl)c1)c1nc2n(c1C(=O)NC1CCc3ccccc31)CCCC2 (stereo not drawn) [Example 52, 2-[butyl-(3-chloro-benzoyl)-amino]-5,6,7,8-tetrahydro-imidazo[1,2-a]pyridine-3-carboxylic acid indan-1-ylamide]  45%
19. CN(C(=O)c1cccc(Cl)c1)c1nc2n(c1C(=O)N1CCN(Cc3ccc4c(c3)OCO4)CC1)CCCC2 [Example 45, N-[3-(4-benzo[1,3]dioxol-5-ylmethyl-piperazine-1-carbonyl)-5,6,7,8-tetrahydro-imidazo[1,2-a]pyridin-2-yl]-3-chloro-N-methyl-benzamide]  41%
20. CN(C(=O)Cc1ccccc1)c1nc2n(c1C(=O)NCCc1cccc(C(F)(F)F)c1)CCCC2 [Example 156, 2-(methyl-phenylacetyl-amino)-5,6,7,8-tetrahydro-imidazo[1,2-a]pyridine-3-carboxylic acid [2-(3-trifluoromethyl-phenyl)-ethyl]-amide]  40%
21. CC(CNC(=O)c1c(N(C)C(=O)c2cccc3ccccc23)nc2n1CCCC2)c1ccc(Cl)cc1 (stereo not drawn) [Example 163, 2-[methyl-(naphthalene-1-carbonyl)-amino]-5,6,7,8-tetrahydro-imidazo[1,2-a]pyridine-3-carboxylic acid [2-(4-chlor-phenyl)-propyl]-amide]  40%
22. CCCCN(C(=O)c1cccc(Cl)c1)c1nc2n(c1C(=O)NCc1ccccc1OCC)CCCC2 [Example 43, 2-[butyl-(3-chloro-benzoyl)-amino]-5,6,7,8-tetrahydro-imidazo[1,2-a]pyridine-3-carboxylic acid 2-ethoxy-benzylamide]  40%
23. CN(C(=O)c1cccc(Cl)c1)c1nc2n(c1C(=O)N1CCN(CCc3ccccc3)CC1)CCCC2 [Example 106, 3-chloro-N-methyl-N-[3-(4-phenethyl-piperazine-1-carbonyl)-5,6,7,8-tetrahydro-imidazo[1,2-a]pyridin-2-yl]-benzamide]  40%
24. Cc1ccc(CCNC(=O)c2c(N(C)C(=O)c3cccc4ccccc34)nc3n2CCCC3)cc1 [Example 49, 2-[methyl-(naphthalene-1-carbonyl)-amino]-5,6,7,8-tetrahydro-imidazo[1,2-a]pyridine-3-carboxylic acid (2-p-tolyl-ethyl)-amide]  37%
25. Cc1ccc(NC(=O)c2c(N(C)C(=O)Cc3ccccc3)nc3n2CCCC3)cc1 [Example 159, 2-(methyl-phenylacetyl-amino)-5,6,7,8-tetrahydro-imidazo[1,2-a]pyridine-3-carboxylic acid p-tolylamide]  37%
26. CN(C(=O)c1cccc(Cl)c1)c1nc2n(c1C(=O)NCCc1cccc(C(F)(F)F)c1)CCCC2 [Example 71, 2-[(3-chloro-benzoyl)-methyl-amino]-5,6,7,8-tetrahydro-imidazo[1,2-a]pyridine-3-carboxylic acid [2-(3-trifluoromethyl-phenyl)-ethyl]-amide]  36%
27. CCCCN(C(=O)c1cccc(Cl)c1)c1nc2n(c1C(=O)NCc1ccccc1C(F)(F)F)CCCC2 [Example 51, 2-[butyl-(3-chloro-benzoyl)-amino]-5,6,7,8-tetrahydro-imidazo[1,2-a]pyridine-3-carboxylic acid 2-trifluoromethyl-benzylamide]  35%
28. CN(C(=O)c1cccc(Cl)c1)c1nc2n(c1C(=O)N1CCC(O)(c3cccc(C(F)(F)F)c3)CC1)CCCC2 [Example 81, 3-chloro-N-{3-[4-hydroxy-4-(3-trifluoromethyl-phenyl)-piperidine-1-carbonyl]-5,6,7,8-tetrahydro-imidazo[1,2-a]pyridin-2-yl}-N-methyl-benzamide]  33%
29. CCCCN(C(=O)c1cccc(Cl)c1)c1nc2n(c1C(=O)NCc1cccc(C)c1)CCCC2 [Example 113, 2-[butyl-(3-chloro-benzoyl)-amino]-5,6,7,8-tetrahydro-imidazo[1,2-a]pyridine-3-carboxylic acid 3-methyl-benzylamide]  31%

Same assay, conditions: radioligand at BTX binding site; rat cerebral cortex synaptosomes

“[^3H]-batrachotoxinin A20 α-benzoate [reference compound]” showed a Kd of 24.6 ± 1.56 nM.
